Measurements reported in PubChem BioAssay (NCI).
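Each compound was tested at five concentrations against cells in 96-well plates for 48 hours. The concentration for 50% growth inhibition is given as GI50. TGI: total growth inhibition.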

Legend:
Test in all cases: DTP human tumour cell line panel, 48 h
[1] = tested on: DU-145 prostate
[2] = tested on: TK-10 renal
[3] = tested on: SN12C renal
[4] = tested on: CAKI-1 renal
[5] = tested on: SK-MEL-2 melanoma
[6] = tested on: HOP-62 NSCLC
[7] = tested on: OVCAR-8 ovarian
[8] = tested on: UACC-62 melanoma
[9] = tested on: SF-295 CNS
[10] = tested on: LOX IMVI melanoma

Compound | TGI [1] | TGI [2] | TGI [3] | TGI [4] | TGI [5] | TGI [6] | TGI [7] | TGI [8] | TGI [9] | TGI [10] | GI50 [3]
COC(=O)C([C@H](NC1(c2ccccc2)c2ccccc2-c2ccccc21)C(=O)OC)N(NC(=O)OCc1ccccc1)C(=O)OCc1ccccc1 (mixture of isomers) | > 100 µM | > 100 µM | > 100 µM | > 100 µM | > 100 µM | > 100 µM | > 100 µM | > 100 µM | > 100 µM | > 100 µM | –
CN(C)C(=O)O/N=C1/C(c2c(O)[nH]c3ccccc23)=Nc2ccccc21 | > 100 µM | 57.1 µM | > 100 µM | 72.6 µM | 33.4 µM | 48.9 µM | 66.1 µM | 98.6 µM | 68.8 µM | > 100 µM | –
CCOC(=O)C1(C/C=C/CBr)Cc2ccccc2C1=O (stereo unspecified) | 28.3 µM | 9.15 µM | 6.41 µM | 7.27 µM | 6.13 µM | 14.8 µM | 7.34 µM | 5.44 µM | 22.1 µM | 3.23 µM | –
COC(=O)c1cc(=O)nc2sc3cccc(C)c3n12 | > 100 µM | > 100 µM | > 100 µM | 61 µM | 82.5 µM | > 100 µM | 49.2 µM | > 100 µM | > 100 µM | 33.8 µM | –
N#CCCC1C(C#N)C2(Cl)CC1(Cl)C(Cl)=C2Cl (stereo unspecified) | > 10 µM | > 10 µM | > 10 µM | > 10 µM | > 10 µM | > 10 µM | > 10 µM | > 10 µM | > 10 µM | > 10 µM | –
ClCCN1CCC2(CC1)SSC1(CCN(CCCl)CC1)S2 | > 100 µM | 95.5 µM | 72.8 µM | 33.4 µM | > 100 µM | > 100 µM | > 100 µM | 71 µM | 92.5 µM | > 100 µM | –
COc1cc(C2c3cc4c(cc3OC(N3CCOCC3)C2C)OCO4)ccc1O (stereo unspecified) | > 100 µM | > 100 µM | > 100 µM | 71.1 µM | 33.6 µM | > 63.8 µM | > 100 µM | > 100 µM | 38.2 µM | > 58.9 µM | –
CCOC(=O)CSc1c(C(=O)OCC)c(=O)n(-c2ccccc2)c(=S)n1-c1ccccc1 | > 100 µM | > 100 µM | > 100 µM | > 100 µM | > 100 µM | > 100 µM | > 100 µM | > 100 µM | > 100 µM | > 100 µM | –
Cc1ccc(-c2n[nH]c(=O)n2N2C(=O)c3ccccc3C2=O)cc1 | > 100 µM | > 100 µM | > 100 µM | > 100 µM | > 100 µM | > 100 µM | > 100 µM | > 100 µM | > 100 µM | > 100 µM | –
CC(C)(C)OC(=O)NCCCCC1NC(=O)[C@@H]2Cc3c([nH]c4ccccc34)C(C3CCCCC3)N2C1=O (stereo partly specified) | > 100 µM | > 100 µM | > 100 µM | > 100 µM | > 100 µM | > 100 µM | > 100 µM | > 100 µM | 63 µM | > 100 µM | –
O=c1[nH]c(Nc2cccc(CC(F)(F)F)c2)nc2nc[nH]c12 | > 100 µM | > 100 µM | > 100 µM | > 100 µM | > 100 µM | > 100 µM | > 100 µM | > 100 µM | > 100 µM | > 100 µM | –
N#CC1(C#N)N[C@@H](c2ccsc2)[C@H]2C(=O)N(c3ccccc3)C(=O)[C@H]21 | > 100 µM | > 100 µM | > 100 µM | > 100 µM | > 100 µM | > 100 µM | > 100 µM | > 100 µM | > 100 µM | > 100 µM | –
COc1cc(Br)cc2cc(-c3cn4ccsc4n3)c(=O)oc12 | > 100 µM | > 100 µM | > 100 µM | > 100 µM | > 100 µM | > 100 µM | > 100 µM | 75.9 µM | 76.6 µM | > 100 µM | –
c1csc(-c2ccc(-c3cccc4nsnc34)s2)c1 | > 100 µM | > 100 µM | > 100 µM | > 100 µM | > 100 µM | > 100 µM | > 100 µM | > 100 µM | > 100 µM | > 100 µM | –
CC(=O)OC1CC(OC2C(O)CC(OC3C(O)CC(OC4CCC5(C)C(CCC6C5CC(O)C5(C)C(C7=CC(=O)OC7)CCC65O)C4)OC3C)OC2C)OC(C)C1OC1OC(CO)C(O)C(O)C1O (stereo unspecified) | 0.106 µM | 0.235 µM | 0.112 µM | 0.0904 µM | 0.488 µM | 0.0956 µM | 0.204 µM | 0.404 µM | 0.179 µM | 0.161 µM | 0.0194 µM
CC(=O)NC(Cc1ccc(O)cc1)C(=O)O (stereo unspecified) | > 100 µM | > 100 µM | > 100 µM | > 100 µM | > 100 µM | > 100 µM | > 100 µM | > 100 µM | > 100 µM | > 100 µM | –

Compound | TGI [1] | TGI [2] | TGI [3] | TGI [4] | TGI [5] | TGI [6] | TGI [7] | TGI [8] | TGI [9] | TGI [10] | GI50 [3]
CC[C@@H]1CC[C@@H]2[C@H](CC[C@]3(C)[C@@H](OC(C)=O)CC[C@@H]23)[C@H]1COC(C)=O | > 100 µM | > 100 µM | 60.9 µM | > 100 µM | 34.5 µM | > 100 µM | 82 µM | 88 µM | 65.1 µM | 31.5 µM | –
NC(=O)NCCCC(NC(=O)OCCCCn1ccc(=O)[nH]c1=O)C(=O)O (stereo unspecified) | > 100 µM | > 100 µM | > 100 µM | > 100 µM | > 100 µM | > 100 µM | > 100 µM | > 100 µM | > 100 µM | > 100 µM | –
COC(=O)C1SC(SC)=NC12c1ccccc1Nc1ccccc12 (stereo unspecified) | > 100 µM | > 100 µM | > 100 µM | > 100 µM | 47.3 µM | > 100 µM | > 100 µM | 34 µM | > 100 µM | 32.2 µM | –
CCCN(C(=O)c1ccccc1)C(C#N)c1ccc(C(C#N)N(CCC)C(=O)c2ccccc2)cc1 (stereo unspecified) | > 100 µM | > 100 µM | > 100 µM | > 100 µM | > 100 µM | 99.3 µM | > 100 µM | > 100 µM | > 100 µM | > 100 µM | –
NC(N)=N/N=C/c1c(-c2ccc(N)cc2)nc2sccn12 | 35.5 µM | 40.9 µM | 48.7 µM | > 100 µM | 81.8 µM | 79 µM | > 100 µM | > 100 µM | 55.6 µM | > 100 µM | –
Nc1nc(Cl)cc(NCC2(CO)CC(=O)C2)n1 | > 100 µM | > 100 µM | > 100 µM | > 100 µM | > 100 µM | > 100 µM | > 100 µM | > 100 µM | > 100 µM | > 100 µM | –
CC(C)(C)N1CSC(=S)N(Cc2ccco2)C1 | 15.5 µM | 11.6 µM | 16.7 µM | 12.4 µM | 14.6 µM | 19.4 µM | 5.63 µM | 20 µM | 31.5 µM | 14.6 µM | –
Cc1nc2n(c1/C=C1/C(=O)Nc3cccc(Cl)c31)CCS2 | > 100 µM | > 100 µM | > 100 µM | > 100 µM | 51.8 µM | 74.1 µM | 88.4 µM | > 100 µM | > 100 µM | > 100 µM | –
O=C(N/N=C(/COc1ccc(Cl)cc1)N=Cc1ccncc1)c1ccncc1 | > 100 µM | > 100 µM | > 100 µM | > 100 µM | > 100 µM | > 100 µM | > 100 µM | > 100 µM | > 100 µM | > 100 µM | –
Cc1ccccc1C(=O)N1CCc2c([nH]c3ccccc23)C1 | 84.5 µM | 80.2 µM | 34.1 µM | 79.5 µM | 27 µM | > 100 µM | > 100 µM | 31.6 µM | > 100 µM | 50.2 µM | –
C[C@@H](NC(=O)[C@@H]1C[C@]1(C)COC(=O)c1cc([N+](=O)[O-])cc([N+](=O)[O-])c1)c1cccc2ccccc12 | > 100 µM | > 100 µM | > 100 µM | > 100 µM | > 100 µM | > 100 µM | > 100 µM | > 100 µM | > 100 µM | > 100 µM | –
[N-]=[N+]=NC[C@H]1OCO[C@H](CN=[N+]=[N-])[C@@H](OCCOCCCl)[C@@H]1OCCOCCCl | > 100 µM | > 100 µM | > 100 µM | > 100 µM | > 100 µM | > 100 µM | > 100 µM | > 100 µM | > 100 µM | > 100 µM | –
c1ccc(N=c2sc3ccccc3nc2Nc2ccccc2)cc1 | > 100 µM | > 100 µM | > 100 µM | > 100 µM | > 100 µM | > 100 µM | > 100 µM | > 100 µM | > 100 µM | > 100 µM | –
COc1cc2nc3n(c(=O)c2cc1OC)-c1ccc([N+](=O)[O-])cc1C3=O | > 100 µM | > 100 µM | > 100 µM | 92.1 µM | > 100 µM | > 100 µM | > 100 µM | > 100 µM | > 100 µM | > 100 µM | –
CCCCCCc1cc2cc(-c3csc(CC#N)n3)c(=O)oc2cc1O | > 100 µM | > 100 µM | > 100 µM | > 100 µM | > 100 µM | > 100 µM | > 100 µM | > 100 µM | > 100 µM | > 100 µM | –
CN1C(=O)C2CCC(=O)N2c2cccnc21 (stereo unspecified) | > 100 µM | > 100 µM | > 100 µM | > 100 µM | > 100 µM | > 100 µM | > 100 µM | > 100 µM | > 100 µM | > 100 µM | –
